In test [1] the target is T1, human TRPV1 (Homo sapiens (Human), UniProt Q8NER1). Kind of test: Capsaicin Activation Assay (intracellular Ca2+, FLIPR). The class given is cell-based. The settings on record: recombinant HEK293 cells expressing hTRPV1, 50 nM capsaicin. In a few lines: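 Stably transfected HEK293 cells expressing human TRPV1 cDNA, plated the day before in poly-D-lysine plates. Compounds serially diluted from 10 mM DMSO stocks; intracellular Ca2+ fluorescence read on FLIPR at 1 to 5 second intervals.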

In test [2] the target is T1, human TRPV1. Kind of test: Acid Activation Assay (pH 5.0, intracellular Ca2+, FLIPR). The class given is cell-based. The settings on record: percentage of the maximal pH 5.0-induced response remaining; recombinant HEK293 hTRPV1 cells; maximum concentration tested 37.5 μM. A digest of the protocol:
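HEK293 cells stably expressing recombinant hTRPV1, loaded with Calcium-4 dye 90-120 min at 25° C. Compounds added over a 12-point half-log range (top 37.5 μM), then pH 5.0 DPBS/MES challenge after 3 min; FLIPR peak fluorescence over baseline given as % of maximal pH 5.0 response.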

T1 sequence (Q8NER1 whole entry): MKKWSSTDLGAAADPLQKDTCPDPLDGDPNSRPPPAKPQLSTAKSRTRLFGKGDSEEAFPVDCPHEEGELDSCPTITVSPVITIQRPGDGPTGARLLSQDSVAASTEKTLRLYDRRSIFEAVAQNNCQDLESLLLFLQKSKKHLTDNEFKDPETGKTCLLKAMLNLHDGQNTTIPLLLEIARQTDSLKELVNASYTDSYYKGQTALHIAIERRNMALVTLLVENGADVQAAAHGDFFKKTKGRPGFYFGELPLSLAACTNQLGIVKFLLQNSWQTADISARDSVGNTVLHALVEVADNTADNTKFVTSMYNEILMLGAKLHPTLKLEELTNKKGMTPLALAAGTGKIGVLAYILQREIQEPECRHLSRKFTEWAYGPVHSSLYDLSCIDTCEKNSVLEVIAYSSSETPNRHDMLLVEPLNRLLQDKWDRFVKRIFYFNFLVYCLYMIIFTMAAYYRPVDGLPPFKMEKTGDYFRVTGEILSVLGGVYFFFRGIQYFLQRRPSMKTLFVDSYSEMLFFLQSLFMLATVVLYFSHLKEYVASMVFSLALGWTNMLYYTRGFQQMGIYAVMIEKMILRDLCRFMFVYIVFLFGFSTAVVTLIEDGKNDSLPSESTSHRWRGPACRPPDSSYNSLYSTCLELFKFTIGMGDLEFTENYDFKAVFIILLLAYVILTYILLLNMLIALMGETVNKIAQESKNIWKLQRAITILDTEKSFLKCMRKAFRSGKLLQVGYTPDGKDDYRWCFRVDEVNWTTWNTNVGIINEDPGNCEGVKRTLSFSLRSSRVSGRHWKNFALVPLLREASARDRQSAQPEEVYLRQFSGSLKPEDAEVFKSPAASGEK

What is called IC50 is the point on the concentration scale where inhibition reaches its midpoint. Turning to `CN1C(=O)NCc2c(NC(=O)N[C@@H]3C[C@](C)(CF)Oc4ccccc43)cccc21` [Example 163, 1-[(2R,4R)-2-(fluoromethyl)-2-methyl-3,4-dihydro-2H-chromen-4-yl]-3-(1-methyl-2-oxo-1,2,3,4-tetrahydroquinazolin-5-yl)urea], the IC50 at human TRPV1 [1] was determined as 220 nM. Besides, on human TRPV1 [2], the “human TRPV1 H^+ (max % remain)” value was 33%.
For `CCC1(CC)C[C@@H](NC(=O)Nc2ccc3c(c2)NC(=O)CC3)c2cc(F)ccc2O1` [Example 229, 1-[(4R)-2,2-diethyl-6-fluoro-3,4-dihydro-2H-chromen-4-yl]-3-(2-oxo-1,2,3,4-tetrahydroquinolin-7-yl)urea], the IC50 at human TRPV1 [1] was determined as 74 nM. Besides, the “human TRPV1 H^+ (max % remain)” value at human TRPV1 [2] is listed as 36%.
For the molecule `Cn1c(=O)ccc2c(NC(=O)N[C@@H]3CC(C)(C)Oc4c3ccc(Cl)c4F)cccc21` [Example 85, 1-[(4R)-7-chloro-8-fluoro-2,2-dimethyl-3,4-dihydro-2H-chromen-4-yl]-3-(1-methyl-2-oxo-1,2-dihydroquinolin-5-yl)urea], the IC50 at human TRPV1 [1] was 23 nM. On human TRPV1 [2], the “human TRPV1 H^+ (max % remain)” value came out at 39%.
Consider `CN1C(=O)CCc2ccc(NC(=O)N[C@@H]3CC(C)(C)Oc4ccc(F)cc43)cc21` [Example 274, 1-[(4R)-6-fluoro-2,2-dimethyl-3,4-dihydro-2H-chromen-4-yl]-3-(1-methyl-2-oxo-1,2,3,4-tetrahydroquinolin-7-yl)urea], for which the IC50 on human TRPV1 [1] stood at 53 nM. For the same molecule, the “human TRPV1 H^+ (max % remain)” value on human TRPV1 [2] turned out to be 81%.
`C[C@@]1(C(F)F)C[C@@H](NC(=O)Nc2ccc3c(c2)NC(=O)CC3)c2ccccc2O1` [Example 248, 1-[(2S,4R)-2-(difluoromethyl)-2-methyl-3,4-dihydro-2H-chromen-4-yl]-3-(2-oxo-1,2,3,4-tetrahydroquinolin-7-yl)urea]: the IC50 on human TRPV1 [1] was found to be 160 nM. Besides, the “human TRPV1 H^+ (max % remain)” value on human TRPV1 [2] is listed as 24%.
On to `CN1Cc2ccc(NC(=O)N[C@@H]3CC(CF)(CF)Oc4cc(Cl)ccc43)cc2NC1=O` [Example 170, 1-[(4R)-7-chloro-2,2-bis(fluoromethyl)-3,4-dihydro-2H-chromen-4-yl]-3-(3-methyl-2-oxo-1,2,3,4-tetrahydroquinazolin-7-yl)urea], for which the IC50 on human TRPV1 [1] is 130 nM. The “human TRPV1 H^+ (max % remain)” value on human TRPV1 [2] was 16%.
On the same counts, the results for `O=C1CCc2ccc(NC(=O)N[C@@H]3CCOc4cc(C(F)(F)F)ccc43)cc2N1` [Example 239, 1-(2-oxo-1,2,3,4-tetrahydroquinolin-7-yl)-3-[(4R)-7-(trifluoromethyl)-3,4-dihydro-2H-chromen-4-yl]urea] are 47 nM and 26%.
Turning to `CCC1(CC)C[C@@H](NC(=O)Nc2ccc3c(c2)NC(=O)CO3)c2ccccc2O1` [Example 102, 1-[(4R)-2,2-diethyl-3,4-dihydro-2H-chromen-4-yl]-3-(3-oxo-3,4-dihydro-2H-1,4-benzoxazin-6-yl)urea], on human TRPV1 [1], the IC50 was 44 nM. Further, the “human TRPV1 H^+ (max % remain)” value on human TRPV1 [2] came to 99%.
As for `Cn1c(=O)ccc2c(NC(=O)N[C@@H]3CC(CF)(CF)Oc4ccccc43)cccc21` [Example 80, 1-[(4R)-2,2-bis(fluoromethyl)-3,4-dihydro-2H-chromen-4-yl]-3-(1-methyl-2-oxo-1,2-dihydroquinolin-5-yl)urea], on human TRPV1 [1], the IC50 is 63 nM. On human TRPV1 [2], the “human TRPV1 H^+ (max % remain)” value is listed as 45%.
Take `O=C(Nc1ccc2c(c1)NC(=O)N(CCO)C2)N[C@@H]1CC(CF)(CF)Oc2cc(Cl)ccc21` [Example 316, 1-[(4R)-7-chloro-2,2-bis(fluoromethyl)-3,4-dihydro-2H-chromen-4-yl]-3-[3-(2-hydroxyethyl)-2-oxo-1,2,3,4-tetrahydroquinazolin-7-yl]urea]: the IC50 at human TRPV1 [1] turned out to be 1900 nM. For the same molecule, at human TRPV1 [2], the “human TRPV1 H^+ (max % remain)” value amounted to 20%.
For the molecule `CN1Cc2ccc(NC(=O)N[C@@H]3CC(CF)(CF)Oc4cc(C(F)(F)F)ccc43)cc2NC1=O` [Example 173, 1-[(4R)-2,2-bis(fluoromethyl)-7-(trifluoromethyl)-3,4-dihydro-2H-chromen-4-yl]-3-(3-methyl-2-oxo-1,2,3,4-tetrahydroquinazolin-7-yl)urea], the IC50 on human TRPV1 [1] was found to be 100 nM. Also, on human TRPV1 [2], the “human TRPV1 H^+ (max % remain)” value was found to be 54%.
Take `CC1(C)C[C@@H](NC(=O)Nc2ccc3c(c2)NC(=O)N(CCO)C3)c2ccc(Cl)cc2O1` [Example 313, 1-[(4R)-7-chloro-2,2-dimethyl-3,4-dihydro-2H-chromen-4-yl]-3-[3-(2-hydroxyethyl)-2-oxo-1,2,3,4-tetrahydroquinazolin-7-yl]urea]: the half-maximal inhibitory concentration (IC50) at human TRPV1 [1] worked out at 76 nM. Moreover, on human TRPV1 [2], the “human TRPV1 H^+ (max % remain)” value was found to be 4%.
Regarding `O=C1COc2ccc(NC(=O)N[C@H]3CC4(CCC4)Oc4ccc(F)cc43)cc2N1` [Example 122, 1-[(4S)-6-fluoro-3,4-dihydrospiro[chromene-2,1′-cyclobutan]-4-yl]-3-(3-oxo-3,4-dihydro-2H-1,4-benzoxazin-6-yl)urea], the IC50 on human TRPV1 [1] is more than 38000 nM. The “human TRPV1 H^+ (max % remain)” value at human TRPV1 [2] is on record as 104%.
On the same counts, the results for `CCCC1(CCC)C[C@@H](NC(=O)Nc2ccc3c(c2)NC(=O)N(C)C3)c2cc(F)ccc2O1` [Example 185, 1-[(4R)-6-fluoro-2,2-dipropyl-3,4-dihydro-2H-chromen-4-yl]-3-(3-methyl-2-oxo-1,2,3,4-tetrahydroquinazolin-7-yl)urea] are 210 nM and 61%.
`CC1(C)C[C@@H](NC(=O)Nc2ccc3c(c2)NC(=O)N(CCO)C3)c2ccc(F)cc2O1` [Example 43, 1-[(4R)-7-fluoro-2,2-dimethyl-3,4-dihydro-2H-chromen-4-yl]-3-[3-(2-hydroxyethyl)-2-oxo-1,2,3,4-tetrahydroquinazolin-7-yl]urea]: the IC50 at human TRPV1 [1] came to 94 nM. Further, at human TRPV1 [2], the “human TRPV1 H^+ (max % remain)” value came out at 8%.
As to `CN1C(=O)NCc2c(NC(=O)N[C@@H]3CC(CF)(CF)Oc4ccc(F)cc43)cccc21` [Example 152, 1-[(4R)-6-fluoro-2,2-bis(fluoromethyl)-3,4-dihydro-2H-chromen-4-yl]-3-(1-methyl-2-oxo-1,2,3,4-tetrahydroquinazolin-5-yl)urea], the IC50 on human TRPV1 [1] amounted to 470 nM. For the same molecule, the “human TRPV1 H^+ (max % remain)” value on human TRPV1 [2] is on record as 22%.
For `CCN1C(=O)NCc2c(NC(=O)N[C@@H]3CC(C)(C)Oc4ccccc43)cccc21` [Example 8, 1-[(4R)-2,2-dimethyl-3,4-dihydro-2H-chromen-4-yl]-3-(I-ethyl-2-oxo-1,2,3,4-tetrahydroquinazolin-5-yl)urea], in that order: 94 nM and 1%.
On to `Cn1c(=O)ccc2c(NC(=O)N[C@@H]3C[C@@](C)(C(F)(F)F)Oc4ccccc43)cccc21` [Example 25, 1-(1-methyl-2-oxo-1,2-dihydroquinolin-5-yl)-3-[(2S,4R)-2-methyl-2-(trifluoromethyl)-3,4-dihydro-2H-chromen-4-yl]urea], for which the IC50 at human TRPV1 [1] turned out to be 18 nM. On human TRPV1 [2], the “human TRPV1 H^+ (max % remain)” value is listed as 65%.
On to `CN1C(=O)CCc2ccc(NC(=O)N[C@@H]3C[C@@](C)(C(F)(F)F)Oc4ccccc43)cc21` [Example 298, 1-(1-methyl-2-oxo-1,2,3,4-tetrahydroquinolin-7-yl)-3-[(2S,4R)-2-methyl-2-(trifluoromethyl)-3,4-dihydro-2H-chromen-4-yl]urea], for which, at human TRPV1 [1], the IC50 worked out at 67 nM. Further, the “human TRPV1 H^+ (max % remain)” value at human TRPV1 [2] came out at 69%.
Consider `O=C1COc2ccc(NC(=O)NCC3CCc4ccc(C(F)(F)F)cc4O3)cc2N1` (centres unmarked) [Example 132, 1-(3-oxo-3,4-dihydro-2H-1,4-benzoxazin-6-yl)-3-{[7-(trifluoromethyl)-3,4-dihydro-2H-chromen-2-yl]methyl}urea], for which the IC50 on human TRPV1 [1] worked out at 31000 nM. At human TRPV1 [2], the “human TRPV1 H^+ (max % remain)” value worked out at 98%.
On to `CC1(C)C[C@H](NC(=O)Nc2ccc3c(c2)NC(=O)N(CCO)C3)c2cc(F)ccc2O1` [Example 57, 1-[(4S)-6-fluoro-2,2-dimethyl-3,4-dihydro-2H-chromen-4-yl]-3-[3-(2-hydroxyethyl)-2-oxo-1,2,3,4-tetrahydroquinazolin-7-yl]urea], for which, on human TRPV1 [1], the IC50 was determined as 380 nM. Besides, the “human TRPV1 H^+ (max % remain)” value on human TRPV1 [2] is 43%.
Regarding `CN1C(=O)CCc2ccc(NC(=O)N[C@@H]3CC(C)(C)Oc4nc(C(F)(F)F)ccc43)cc21` [Example 295, 1-[(4R)-2,2-dimethyl-7-(trifluoromethyl)-3,4-dihydro-2H-pyrano[2,3-b]pyridin-4-yl]-3-(1-methyl-2-oxo-1,2,3,4-tetrahydroquinolin-7-yl)urea], the IC50 at human TRPV1 [1] stood at 99 nM. Also, on human TRPV1 [2], the “human TRPV1 H^+ (max % remain)” value is 67%.
`O=C1COc2ccc(NC(=O)N[C@@H]3CC(CF)(CF)Oc4cc(Cl)ccc43)cc2N1` [Example 29, 1-[(4R)-7-chloro-2,2-bis(fluoromethyl)-3,4-dihydro-2H-chromen-4-yl]-3-(3-oxo-3,4-dihydro-2H-1,4-benzoxazin-6-yl)urea]: the IC50 on human TRPV1 [1] is 100 nM. For the same molecule, the “human TRPV1 H^+ (max % remain)” value at human TRPV1 [2] is recorded as 93%.
Consider `CN1C(=O)NCc2c(NC(=O)N[C@@H]3CC(C)(C)Oc4cc(OC(F)(F)F)ccc43)cccc21` [Example 137, 1-[(4R)-2,2-dimethyl-7-(trifluoromethoxy)-3,4-dihydro-2H-chromen-4-yl]-3-(1-methyl-2-oxo-1,2,3,4-tetrahydroquinazolin-5-yl)urea], for which, at human TRPV1 [1], the IC50 amounted to 38 nM. At human TRPV1 [2], the “human TRPV1 H^+ (max % remain)” value is 17%.
On to `CCCC1(CCC)C[C@@H](NC(=O)Nc2cccc3c2CNC(=O)N3C)c2cc(F)ccc2O1` [Example 151, 1-[(4R)-6-fluoro-2,2-dipropyl-3,4-dihydro-2H-chromen-4-yl]-3-(1-methyl-2-oxo-1,2,3,4-tetrahydroquinazolin-5-yl)urea], for which, on human TRPV1 [1], the IC50 was found to be 170 nM. At human TRPV1 [2], the “human TRPV1 H^+ (max % remain)” value came to 53%.

The values are drawn from US8969325B2, “TRPV1 antagonists” (AbbVie Inc., priority 2011, dated 2015).
